Test results taken from ChEMBL document CHEMBL1141742, “A Novel Insect Antifeedant Nonprotein Amino Acid from Calotropis gigantea” (1998).
Calls of active or inactive are those of the source. No cut-off for these calls is given here.

What was measured:
Schistocerca gregaria [1] = test: Antifeedant activity against 5th instar nymphs of Schistocerca gregaria assessed as feeding reduction at 1 ng/cm'2 by filter paper based feeding assay; format: functional, organism-based
Schistocerca gregaria [2] = test: Antifeedant activity against 5th instar nymphs of Schistocerca gregaria assessed as feeding reduction at 1.6 ug/cm'2 by maize leave choice feeding assay; format: functional; design: scale not given: the % may be the effect or the level left
Schistocerca gregaria [3] = test: Antifeedant activity against 5th instar nymphs of Schistocerca gregaria assessed as feeding reduction at 3.2 ug/cm'2 by maize leave choice feeding assay; format: functional; design: scale not given: the % may be the effect or the level left
Schistocerca gregaria [4] = test: Antifeedant activity against 5th instar nymphs of Schistocerca gregaria assessed as feeding reduction at 5 ug/cm'2 by maize leave choice feeding assay; format: functional; design: scale not given: the % may be the effect or the level left
Schistocerca gregaria [5] = test: Antifeedant activity against 5th instar nymphs of Schistocerca gregaria assessed as feeding reduction at 6.6 ug/cm'2 by maize leave choice feeding assay; format: functional; design: scale not given: the % may be the effect or the level left

SMILES | Activity (Schistocerca gregaria [1]) | Activity (Schistocerca gregaria [2]) [%] | Activity (Schistocerca gregaria [3]) [%] | Activity (Schistocerca gregaria [4]) [%] | Activity (Schistocerca gregaria [5]) [%]
C/C=C(\C)C(=O)O[C@H]1C[C@@H](OC(C)=O)[C@@]2(C(=O)OC)CO[C@H]3[C@@H](O)[C@@](C)([C@]45O[C@@]4(C)[C@@H]4C[C@H]5O[C@@H]5OC=C[C@@]54O)[C@H]4[C@]1(CO[C@]4(O)C(=O)OC)[C@@H]32 | Active |  |  |  | 
CCOC(=O)Nc1ccc([C@H](NC(C)=O)C(=O)O)cc1 [GIGANTICINE] |  | 55 | 68 | 80 | 90
